According to ChEMBL document CHEMBL4145686, “Discovery of a Potent and Selective Steroidal Glucocorticoid Receptor Antagonist (ORIC-101)” (J Med Chem, 2018):

Assays:
[1] = AUC in rat at 5 mg/kg, po; assay type: ADME, organism-based; conditions: in vivo
[2] = Cmax in rat at 5 mg/kg, po; assay type: ADME, organism-based; set-up: dose 5 mg/kg, route oral; conditions: in vivo
[3] = Clearance in rat at 0.5 mg/kg, iv; assay type: ADME, organism-based; conditions: in vivo
[4] = biological target: T1, Glucocorticoid receptor (Homo sapiens, UniProt P04150); assay: Antagonist activity at human GR expressed in CHO-K1 cells assessed as reduction in dexamethasone-induced response incubated for 20 hrs by luciferase reporter gene assay; assay type: cell-based
T1 sequence (P04150 whole entry): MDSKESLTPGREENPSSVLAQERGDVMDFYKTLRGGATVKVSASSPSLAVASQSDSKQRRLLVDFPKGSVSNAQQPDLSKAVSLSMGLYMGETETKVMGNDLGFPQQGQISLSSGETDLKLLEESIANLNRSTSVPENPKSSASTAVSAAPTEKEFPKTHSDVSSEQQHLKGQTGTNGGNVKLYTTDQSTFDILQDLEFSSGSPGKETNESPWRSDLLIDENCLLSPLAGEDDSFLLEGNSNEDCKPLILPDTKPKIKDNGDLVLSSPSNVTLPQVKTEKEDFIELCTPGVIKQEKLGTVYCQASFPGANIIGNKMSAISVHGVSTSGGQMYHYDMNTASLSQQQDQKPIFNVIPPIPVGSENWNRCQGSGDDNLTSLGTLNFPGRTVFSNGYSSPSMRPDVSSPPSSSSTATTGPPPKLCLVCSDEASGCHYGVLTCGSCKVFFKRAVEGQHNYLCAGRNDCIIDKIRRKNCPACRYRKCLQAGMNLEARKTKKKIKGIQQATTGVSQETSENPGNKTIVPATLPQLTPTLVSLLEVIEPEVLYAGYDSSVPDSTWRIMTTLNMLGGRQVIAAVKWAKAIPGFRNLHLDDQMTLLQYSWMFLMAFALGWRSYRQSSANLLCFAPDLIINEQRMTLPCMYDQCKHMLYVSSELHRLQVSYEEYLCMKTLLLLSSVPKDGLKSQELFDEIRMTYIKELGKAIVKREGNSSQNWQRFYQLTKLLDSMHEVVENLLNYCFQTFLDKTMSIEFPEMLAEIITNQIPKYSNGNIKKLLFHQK

[5] = biological target: T2, glucocorticoid receptor (GR) (Homo sapiens, UniProt P04150); assay: Agonist activity at human GR expressed in CHO-K1 cells incubated for 20 hrs by luciferase reporter gene assay relative to dexamethasone; assay type: cell-based; conditions: CHO-K1 cells expressing human GR
T2 sequence (P04150 whole entry): T1 sequence (P04150 whole entry)

[6] = biological target: Cytochrome P450 3A4 (Homo sapiens, UniProt P08684); assay: Inhibition of CYP3A4 (unknown origin) using midazolam as substrate; assay type: ADME
Chain of Cytochrome P450 3A4 (P08684 whole entry): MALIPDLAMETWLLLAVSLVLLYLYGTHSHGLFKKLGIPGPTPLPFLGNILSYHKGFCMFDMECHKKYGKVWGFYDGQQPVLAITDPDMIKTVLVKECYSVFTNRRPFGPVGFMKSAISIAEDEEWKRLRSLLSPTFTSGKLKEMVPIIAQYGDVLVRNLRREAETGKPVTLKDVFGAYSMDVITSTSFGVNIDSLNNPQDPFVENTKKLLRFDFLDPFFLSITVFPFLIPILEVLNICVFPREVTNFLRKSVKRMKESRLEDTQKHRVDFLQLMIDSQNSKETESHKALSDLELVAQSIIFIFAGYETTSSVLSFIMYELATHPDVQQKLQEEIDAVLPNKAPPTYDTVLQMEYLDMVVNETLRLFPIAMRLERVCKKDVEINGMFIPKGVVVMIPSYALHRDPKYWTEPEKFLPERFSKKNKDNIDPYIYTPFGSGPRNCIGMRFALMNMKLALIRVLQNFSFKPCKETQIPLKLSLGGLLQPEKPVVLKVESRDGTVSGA

[7] = Volume of distribution at steady state in rat at 0.5 mg/kg, iv; assay type: ADME, organism-based; conditions: in vivo, read-out: Vdss
[8] = biological target: T3, Cytochrome P450 2C8 (Homo sapiens, UniProt P10632); assay: Inhibition of CYP2C8 (unknown origin) using […] as substrate; assay type: ADME
T3 sequence (P10632 whole entry): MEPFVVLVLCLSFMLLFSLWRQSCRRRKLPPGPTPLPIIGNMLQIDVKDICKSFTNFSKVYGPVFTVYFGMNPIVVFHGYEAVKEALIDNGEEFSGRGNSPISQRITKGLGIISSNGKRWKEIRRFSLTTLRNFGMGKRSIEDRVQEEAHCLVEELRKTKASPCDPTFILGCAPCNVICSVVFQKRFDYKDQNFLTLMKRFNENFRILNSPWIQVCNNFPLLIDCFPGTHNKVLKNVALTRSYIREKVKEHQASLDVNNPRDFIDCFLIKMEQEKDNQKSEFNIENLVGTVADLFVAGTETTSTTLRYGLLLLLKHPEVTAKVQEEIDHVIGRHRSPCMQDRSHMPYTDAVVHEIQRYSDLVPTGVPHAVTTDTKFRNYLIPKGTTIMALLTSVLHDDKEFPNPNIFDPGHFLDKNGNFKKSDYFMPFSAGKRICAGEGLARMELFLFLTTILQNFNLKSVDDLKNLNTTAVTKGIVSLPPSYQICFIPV

[9] = Half life in rat at 0.5 mg/kg, iv; assay type: ADME, organism-based; conditions: in vivo
[10] = biological target: T4, androgen receptor (AR) (Homo sapiens, UniProt P10275); assay: Agonist activity at AR (unknown origin) expressed in human LNCaP cells incubated for 20 hrs by luciferase reporter gene assay relative to mifepristone; assay type: cell-based; conditions: human LNCaP cells expressing AR
T4 sequence (P10275 whole entry): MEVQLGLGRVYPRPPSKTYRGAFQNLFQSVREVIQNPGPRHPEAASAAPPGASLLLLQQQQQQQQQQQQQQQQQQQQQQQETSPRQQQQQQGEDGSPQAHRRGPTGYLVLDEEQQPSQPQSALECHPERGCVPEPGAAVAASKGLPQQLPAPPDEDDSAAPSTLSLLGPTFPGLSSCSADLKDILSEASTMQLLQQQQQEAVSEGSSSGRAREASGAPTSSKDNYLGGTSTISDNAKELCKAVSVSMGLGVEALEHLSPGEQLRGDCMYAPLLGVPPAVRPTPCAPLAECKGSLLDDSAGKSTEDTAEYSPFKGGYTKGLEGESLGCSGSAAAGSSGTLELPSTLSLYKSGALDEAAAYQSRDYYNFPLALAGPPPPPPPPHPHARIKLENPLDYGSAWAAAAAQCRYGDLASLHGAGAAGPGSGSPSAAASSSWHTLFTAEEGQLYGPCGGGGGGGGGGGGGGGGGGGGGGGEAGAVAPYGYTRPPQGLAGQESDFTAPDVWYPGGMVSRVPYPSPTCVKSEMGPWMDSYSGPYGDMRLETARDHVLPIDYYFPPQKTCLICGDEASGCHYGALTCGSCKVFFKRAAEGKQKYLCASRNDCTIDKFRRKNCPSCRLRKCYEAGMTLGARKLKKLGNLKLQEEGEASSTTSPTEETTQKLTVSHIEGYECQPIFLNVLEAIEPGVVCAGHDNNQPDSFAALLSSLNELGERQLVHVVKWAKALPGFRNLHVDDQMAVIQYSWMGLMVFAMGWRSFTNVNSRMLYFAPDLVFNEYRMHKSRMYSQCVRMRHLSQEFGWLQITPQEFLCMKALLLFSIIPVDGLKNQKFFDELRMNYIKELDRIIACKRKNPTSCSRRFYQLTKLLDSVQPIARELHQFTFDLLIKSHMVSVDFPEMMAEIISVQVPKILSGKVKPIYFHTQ

[11] = biological target: Cytochrome P450 2C9 (Homo sapiens, UniProt P11712); assay: Inhibition of CYP2C9 (unknown origin) using […] as substrate; assay type: ADME
Chain of Cytochrome P450 2C9 (P11712 whole entry): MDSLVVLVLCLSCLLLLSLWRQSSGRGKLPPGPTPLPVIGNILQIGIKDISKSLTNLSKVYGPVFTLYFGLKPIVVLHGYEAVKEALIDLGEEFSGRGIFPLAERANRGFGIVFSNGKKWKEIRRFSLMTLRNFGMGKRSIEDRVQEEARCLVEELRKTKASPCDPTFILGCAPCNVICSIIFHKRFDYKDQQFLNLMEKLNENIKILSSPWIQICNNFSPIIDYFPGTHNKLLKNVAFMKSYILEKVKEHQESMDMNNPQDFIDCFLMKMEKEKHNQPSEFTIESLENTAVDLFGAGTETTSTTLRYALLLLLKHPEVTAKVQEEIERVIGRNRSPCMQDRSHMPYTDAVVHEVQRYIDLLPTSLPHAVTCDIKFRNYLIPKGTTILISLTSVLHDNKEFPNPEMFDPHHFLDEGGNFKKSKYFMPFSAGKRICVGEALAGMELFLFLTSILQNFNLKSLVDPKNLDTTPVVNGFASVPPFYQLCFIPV

[12] = Oral bioavailability in rat at 5 mg/kg; assay type: ADME, organism-based; conditions: in vivo
[13] = biological target: T1, Glucocorticoid receptor; assay: Agonist activity at human GR expressed in CHO-K1 cells incubated for 20 hrs by luciferase reporter gene assay; assay type: cell-based
[14] = biological target: T5, Androgen receptor (Homo sapiens, UniProt P10275); assay: Agonist activity at AR (unknown origin) expressed in human LNCaP cells incubated for 20 hrs by luciferase reporter gene assay; assay type: cell-based
T5 sequence (P10275 whole entry): T4 sequence (P10275 whole entry)

[15] = biological target: T5, Androgen receptor; assay: Agonist activity at AR in human LNAR cells assessed as increase in PSA gene expression at 0.1 nM incubated for 24 hrs in presence of 1 uM enzalutamide by RT-qPCR method; assay type: cell-based; conditions: 0.0001 µM
[16] = biological target: T5, Androgen receptor; assay: Agonist activity at AR in human LNAR cells assessed as increase in TMPRSS2 gene expression at 0.1 nM incubated for 24 hrs in presence of 1 uM enzalutamide by RT-qPCR method; assay type: cell-based; conditions: 0.0001 µM
[17] = biological target: T5, Androgen receptor; assay: Agonist activity at AR in human LNAR cells assessed as increase in TMPRSS2 gene expression at 0.1 nM incubated for 24 hrs by RT-qPCR method; assay type: cell-based; conditions: 0.0001 µM
[18] = biological target: T5, Androgen receptor; assay: Agonist activity at AR in human LNAR cells assessed as increase in PSA gene expression at 0.1 nM incubated for 24 hrs by RT-qPCR method; assay type: cell-based; conditions: 0.0001 µM

SMILES | AUC [1] | Cmax [2] | clearance [3] | IC50 [4] | Emax at 20 h [5] | IC50 [6] | Vd [7] | IC50 [8] | half-life [9] | Emax at 20 h [10] | IC50 [11] | bioavailability [12] | EC50 [13] | EC50 [14] | Activity [15] | Activity [16] | Activity [17] | Activity [18]
CN(C)c1ccc([C@H]2C[C@@]3(C)[C@@H](CC[C@@]3(O)C#CC(C)(C)C)[C@@H]3CCC4=CC(=O)CCC4=C32)cc1 | 471 ng·h/mL | 72 ng/mL | 66.7 mL/min/kg | 14.6 nM | 1.4% | 2900 nM | 4.9 L/kg | > 10 µM | 114 min | 13.4% | > 10 µM | 37% | > 2500 nM | > 2500 nM |  |  |  | 
C[C@]1(O)CC[C@H]2[C@@H]3CCC4=CC(=O)CCC4=C3C=C[C@@]21C [METRIBOLONE] |  |  |  |  |  |  |  |  |  |  |  |  |  |  | Not Active | Not Active | Active | Active
